Source: patent publication US9145415B2, “Nitrogen-containing heterocyclic compound or salt thereof” (FUJIFILM Corporation, priority 2012, dated 2015)
pIC50: −log10 of the molar value.

Key:
[1] = target: T1, human FLT3 protein (FLT3 (WT)) (Homo sapiens, UniProt P36888); test: FLT3 inhibition test (FLT3 enzyme inhibition, time-resolved fluorescence of substrate peptide phosphorylation); assay type: biochemical; settings: FLT3 (WT); read-out: FLT3 (WT) enzyme inhibition activity
T1 construct: human FLT3 protein (intracellular region, 564 to 993 aa); GST; purchased Carna Biosciences; host or cells: baculovirus expression system
T1 sequence (P36888 564-993): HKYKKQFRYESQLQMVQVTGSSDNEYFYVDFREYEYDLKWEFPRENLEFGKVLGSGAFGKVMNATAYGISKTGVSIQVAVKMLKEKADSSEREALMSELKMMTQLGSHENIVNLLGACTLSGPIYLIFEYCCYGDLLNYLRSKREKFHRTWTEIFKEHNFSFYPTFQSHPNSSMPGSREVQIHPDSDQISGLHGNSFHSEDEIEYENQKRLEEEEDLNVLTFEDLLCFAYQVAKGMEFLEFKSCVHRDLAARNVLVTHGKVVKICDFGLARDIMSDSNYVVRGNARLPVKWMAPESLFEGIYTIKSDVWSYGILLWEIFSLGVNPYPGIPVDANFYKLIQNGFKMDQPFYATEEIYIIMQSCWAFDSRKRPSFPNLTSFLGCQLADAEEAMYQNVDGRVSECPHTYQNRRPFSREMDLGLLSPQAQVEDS
Method in brief: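 Wild-type human FLT3 (1.2 μg) pre-incubated with compound 15 min at 25° C in 100 mM HEPES pH 7.5, 10 mM MgCl2, 25 mM NaCl, 1 mM DTT. Reaction started with substrate peptide and ATP (final 50 μM), run 30 min at 25° C; phosphorylation read by time-resolved fluorescence.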

MV4-11 cells = test: Leukemia cell proliferation inhibition test (ATPlite), MV4-11; assay type: cell-based; settings: Homo sapiens, MV4-11, MV4-11 cell; read-out: MV4-11 cell proliferation inhibition effect
Method in brief: (§1)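 Proliferation inhibition is quantified from total cellular ATP, measured by luciferase luminescence, after cells grow with compound for 72 hours. The GI50 is the concentration giving half the signal of the 0.1% DMSO control, fitted to a sigmoid curve from duplicate points.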

Molm-13 cells = test: Leukemia cell proliferation inhibition test (ATPlite), Molm-13; assay type: cell-based; settings: Homo sapiens, MOLM-13, MOLM13 cell; read-out: MOLM13 cell proliferation inhibition effect
Method in brief: as §1

| pIC50 [1] | pIC50 (MV4-11 cells) | pIC50 (Molm-13 cells) | Compound |
| --- | --- | --- | --- |
| > 8.00 | > 8.00 | > 8.00 | CNc1nc(Nc2ccc(OC)c(F)c2)ncc1C#C[C@@H]1CCC[C@H](NC(=O)[C@H](C)N(C)C(=O)/C=C/CN(C)C)C1 [Compound 21-32, (E)-4-(Dimethylamino)-N—((S)-1-(((1S,3R)-3-((2-((3-fluoro-4-methoxyphenyl)amino)-4-(methylamino)pyrimidin-5-yl)ethynyl)cyclohexyl)amino)-1-oxopropan-2-yl)-N-methyl-2-butenamide] |
| > 8.00 | > 8.00 | > 8.00 | CC(C)Nc1nc(Nc2ccc(C#N)cc2)ncc1C#CCCCNC(=O)[C@H](C)N(C)C(=O)/C=C/CN(C)C [Compound 21-33] |
| > 8.00 | > 8.00 | > 8.00 | CCCNc1nc(Nc2ccc3occc3c2)ncc1C#CCCCNC(=O)[C@H](C)N(C)C(=O)/C=C/CN(C)C [Compound 21-34] |
| > 8.00 | 7.00 to 8.00 | 7.00 to 8.00 | CCCNc1nc(NC)ncc1C#C[C@@H]1CCC[C@H](NC(=O)[C@H](C)N(C)C(=O)/C=C/CN(C)C)C1 [Compound 21-35] |
| > 8.00 | > 8.00 | > 8.00 | CNc1ncc(C#C[C@@H]2CCC[C@H](NC(=O)[C@H](C)N(C)C(=O)/C=C/CN(C)C)C2)c(Nc2ccc(OC)cc2)n1 [Compound 21-36] |
| > 8.00 | > 8.00 | > 8.00 | CNc1ncc(C#C[C@@H]2CCC[C@H](NC(=O)[C@H](C)N(C)C(=O)/C=C/CN(C)C)C2)c(Nc2ccc(F)cc2)n1 [Compound 21-37] |
| > 8.00 | > 8.00 | > 8.00 | CCCNc1ncc(C#CCCCNC(=O)[C@H](C)N(C)C(=O)/C=C/CN(C)C)c(Nc2ccc(OC)cc2)n1 [Compound 21-38] |
| > 8.00 | > 8.00 | > 8.00 | CNc1ncc(C#C[C@@H]2CCC[C@H](NC(=O)[C@H](C)N(C)C(=O)/C=C/CN(C)C)C2)c(NCc2ccccc2)n1 [Compound 21-39] |
| > 8.00 | > 8.00 | > 8.00 | CCCNc1nc(Nc2ccc(F)cc2)ncc1C#C[C@@H]1CCC[C@H](NC(=O)[C@H](C)N(C)C(=O)/C=C/CN(C)C)C1 [Compound 21-40] |
| > 8.00 | > 8.00 | > 8.00 | CNc1nc(Nc2ccc(F)cc2)ncc1C#C[C@@H]1CCC[C@H](NC(=O)[C@H](C)N(C)C(=O)/C=C/CN(C)C)C1 [Compound 21-41] |
| > 8.00 | > 8.00 | > 8.00 | CNc1nc(Nc2ccc(OC)c(F)c2)ncc1C#CCCCNC(=O)[C@@H]1CCCN1C(=O)/C=C/CN(C)C [Compound 21-42] |
| > 8.00 | > 8.00 | > 8.00 | CNc1nc(Nc2ccc(F)cc2)ncc1C#CCCCNC(=O)[C@@H]1CCCN1C(=O)/C=C/CN(C)C [Compound 21-43] |
| > 8.00 | 7.00 to 8.00 | 7.00 to 8.00 | CNc1ncc(C#C[C@@H]2CCC[C@H](NC(=O)[C@H](C)N(C)C(=O)/C=C/CN(C)C)C2)c(NCc2cccc(F)c2)n1 [Compound 21-44] |
| > 8.00 | > 8.00 | > 8.00 | CNc1nc(Nc2ccc(C#N)cc2)ncc1C#CCCCNC(=O)[C@@H]1CCCN1C(=O)/C=C/CN(C)C [Compound 21-45] |
| > 8.00 | > 8.00 | > 8.00 | C[C@@H](C(=O)N[C@H]1CCC[C@@H](C#Cc2cnc(Nc3ccc(F)cc3)nc2NC2CC2)C1)N(C)C(=O)/C=C/CN(C)C [Compound 21-46] |
| > 8.00 | > 8.00 | > 8.00 | C[C@@H](C(=O)N[C@H]1CCC[C@@H](C#Cc2cnc(Nc3cccc(C#N)c3)nc2NC2CC2)C1)N(C)C(=O)/C=C/CN(C)C [Compound 21-47] |

| pIC50 [1] | pIC50 (MV4-11 cells) | pIC50 (Molm-13 cells) | Compound |
| --- | --- | --- | --- |
| > 8.00 | 7.00 to 8.00 | > 8.00 | CNc1ncc(C#CCCCNC(=O)[C@H](C)N(C)C(=O)/C=C/CN(C)C)c(Nc2ccc(OC)cc2)n1 [Compound 21-48] |
| 7.00 to 8.00 | > 8.00 | > 8.00 | CNc1nc(Nc2ccc3c(c2)c(F)nn3C)ncc1C#CCCCNC(=O)[C@H](C)N(C)C(=O)/C=C/CN(C)C [Compound 21-49] |
| > 8.00 | > 8.00 | > 8.00 | CNc1nc(Nc2ccc3c(F)nn(C)c3c2)ncc1C#CCCCNC(=O)[C@H](C)N(C)C(=O)/C=C/CN(C)C [Compound 21-50] |
| > 8.00 | > 8.00 | > 8.00 | CNc1nc(Nc2ccc(F)cc2)ncc1C#CCCCNC(=O)[C@H](C)N(C)C(=O)/C=C/CN(C)C [Compound 21-51] |
| > 8.00 | > 8.00 | > 8.00 | CCCOc1nc(Nc2cccc(F)c2)ncc1C#C[C@@H]1CCC[C@H](NC(=O)[C@H](C)N(C)C(=O)/C=C/CN(C)C)C1 [Compound 21-52] |
| > 8.00 | > 8.00 | > 8.00 | CCCNc1nc(Nc2ccc3cn[nH]c3c2)ncc1C#CCCCNC(=O)[C@H](C)N(C)C(=O)/C=C/CN(C)C [Compound 21-53, (S,E)-N-(1-((5-(2-((1H-indazol-6-yl)amino)-4-(propylamino)pyrimidin-5-yl)-4-pentyn-1-yl)amino)-1-oxopropan-2-yl)-4-(dimethylamino)-N-methyl-2-butenamide] |
| 7.00 to 8.00 | 7.00 to 8.00 | 6.00 to 7.00 | CCCNc1nc(Nc2cccc3[nH]ncc23)ncc1C#CCCCNC(=O)[C@H](C)N(C)C(=O)/C=C/CN(C)C [Compound 21-54] |
| > 8.00 | > 8.00 | > 8.00 | CCCNc1nc(Nc2ccc3[nH]ncc3c2)ncc1C#CCCCNC(=O)[C@H](C)N(C)C(=O)/C=C/CN(C)C [Compound 21-55] |
| 7.00 to 8.00 | 6.00 to 7.00 | 6.00 to 7.00 | CCCNc1nc(Nc2cccc3cn[nH]c23)ncc1C#CCCCNC(=O)[C@H](C)N(C)C(=O)/C=C/CN(C)C [Compound 21-56] |
| > 8.00 | > 8.00 | > 8.00 | CCCNc1nc(Nc2ccc3ncccc3c2)ncc1C#CCCCNC(=O)[C@H](C)N(C)C(=O)/C=C/CN(C)C [Compound 22-2] |
| > 8.00 | 7.00 to 8.00 | 7.00 to 8.00 | CCCNc1nc(Nc2cnc3ccccc3c2)ncc1C#CCCCNC(=O)[C@H](C)N(C)C(=O)/C=C/CN(C)C [Compound 22-3] |
| > 8.00 | > 8.00 | > 8.00 | CCCNc1nc(Nc2ccc3nccnc3c2)ncc1C#CCCCNC(=O)[C@H](C)N(C)C(=O)/C=C/CN(C)C [Compound 22-4] |
| 7.00 to 8.00 | 6.00 to 7.00 | 7.00 to 8.00 | CCCNc1nc(Nc2ccc3nc(C)ccc3c2)ncc1C#CCCCNC(=O)[C@H](C)N(C)C(=O)/C=C/CN(C)C [Compound 22-5] |
| > 8.00 | > 8.00 | > 8.00 | CCCNc1nc(Nc2ccc3ncsc3c2)ncc1C#CCCCNC(=O)[C@H](C)N(C)C(=O)/C=C/CN(C)C [Compound 22-6, (S,E)-N-(1-((5-(2-(Benzo[d]thiazol-6-ylamino)-4-(propylamino)pyrimidin-5-yl)-4-pentyn-1-yl)amino)-1-oxopropan-2-yl)-4-(dimethylamino)-N-methyl-2-butenamide] |
| > 8.00 | 7.00 to 8.00 | 7.00 to 8.00 | CCCNc1nc(Nc2ccc3sc(C)nc3c2)ncc1C#CCCCNC(=O)[C@H](C)N(C)C(=O)/C=C/CN(C)C [Compound 22-7] |
